Reference: patent US9504663B2, “Composition for the treatment of cystic fibrosis” (SciPharm SaRL, priority 2011, dated 2016)
Entries after “also recorded” stand apart in the source; their conditions may differ.

How the values were obtained:
IB3-1 cells [1] = assay: Treprostinil-induced [3H]cAMP accumulation in IB3-1 cells with or without PDE inhibitors; format: cell-based, human; conditions: for accumulation of cAMP with PDE3 inhibitors: in experiments
Procedure: IB3-1 cells were plated on 6 well-plates (0.2*10^6 cells/well in FIG. 1; 0.4*10^6 cells in FIG. 2) in complete growth medium (LHC-8+5% FCS). The following day, the adenine nucleotide pool was metabolically labeled by incubation with [3H]adenine (1 μCi/well) in Dulbecco's Modified Eagle Medium (DMEM) containing adenosine deaminase (1 unit/ml) for 4 h. Thereafter the medium was replaced with fresh medium; the cells were stimulated by sole addition of Treprostinil (in logarithmically spaced concentrations ranging from 0.1 to 30 μM) or of Treprostinil in combination with the indicated concentrations of PDE-inhibitors. After an incubation of 30 min, the cells were lysed by the addition of perchloric acid. The formation of [3H]cAMP was determined by sequential chromatography on Dowex 50WX-4 and neutral alumina columns followed by liquid scintillation counting of the eluate. The assay was performed in triplicate. IB3-1 cells were seeded onto PDL-coated wells of 6-well plates (2 to 2.5*10^5 cells/well) in complete growth medium (LHC-8+5% FCS). On the following day, the cellular adenine nucleotide pool was metabolically labelled by incubation with [^3H]adenine (1 μCi/well) in Dulbecco's Modified Eagle Medium (DMEM) in the presence of adenosine deaminase (5 μg/ml) for 4 h. Subsequently, the medium was replaced with fresh DMEM and the formation of cAMP was stimulated by addition of 5 μM forskolin, a direct activator of the adenylyl cyclase, or 10 μM treprostinil in the absence and presence of different concentrations of the following phosphodiesterase (PDE) inhibitors: ibudilast (0.3-1000 μM), Ro-20-1724 (0.03-300 μM), roflumilast (1 nM-10 μM), dipyridamole (0.01-100 μM), aminone (1, 10, 100 μM), anagrelide (1, 10, 100 μM), enoximone (1, 10, 100 μM), milrinone (1, 10, 100 μM) and cilostazol (0.1 to 100 μM) for 20 min at 37° C. […] The formation of [^3H]cAMP was quantified by liquid scintillation counting.

IB3-1 cells [2] = assay: Forskolin-triggered [3H]cAMP accumulation in IB3-1 cells with PDE inhibitors; format: cell-based, human; conditions: 5 μM forskolin
Procedure: IB3-1 cells were seeded onto PDL-coated wells of 6-well plates (2 to 2.5*10^5 cells/well) in complete growth medium (LHC-8+5% FCS). On the following day, the cellular adenine nucleotide pool was metabolically labelled by incubation with [^3H]adenine (1 μCi/well) in Dulbecco's Modified Eagle Medium (DMEM) in the presence of adenosine deaminase (5 μg/ml) for 4 h. Subsequently, the medium was replaced with fresh DMEM and the formation of cAMP was stimulated by addition of 5 μM forskolin, a direct activator of the adenylyl cyclase, or 10 μM treprostinil in the absence and presence of different concentrations of the following phosphodiesterase (PDE) inhibitors: ibudilast (0.3-1000 μM), Ro-20-1724 (0.03-300 μM), roflumilast (1 nM-10 μM), dipyridamole (0.01-100 μM), aminone (1, 10, 100 μM), anagrelide (1, 10, 100 μM), enoximone (1, 10, 100 μM), milrinone (1, 10, 100 μM) and cilostazol (0.1 to 100 μM) for 20 min at 37° C. In some instances, the effect of these inhibitors on basal cAMP accumulation was examined by incubating cells in the absence of any additional stimulus with increasing concentrations of PDE-inhibitors (i.e., dipyridamole, ibudilast and Ro-20-1724 at 1, 10 and 100 μM; roflumilast at and 0.1, 1 and 10 μM of Roflumilast). Concentration-response curves for treprostinil were obtained by adding treprostinil (0.1 to 30 μM) alone or in combination with 100 μM Ro-20-1724, 100 μM ibudilast or 5 μM roflumilast. The reaction performed in triplicate was stopped by adding 2.5% perchloric acid together with 0.1 mM (unlabelled) cAMP. [^3H]cAMP was isolated by sequential chromatography on Dowex 50W-X4 and neutral alumina columns. The formation of [^3H]cAMP was quantified by liquid scintillation counting.

[3] = aerosolised; patient with cystic fibrosis and secondary pulmonary hypertension; cited from earlier work
[4] = tested on: cystic fibrosis transmembrane conductance regulator/Cl- channel (CFTR); assay: Whole cell patch clamp of treprostinil-induced Cl- currents through CFTR, Example 3; format: cell-based, human; conditions: for effect on treprostinil-induced CFTR current of adding PDE4 inhibitor: added on top of treprostinil
Procedure: The following human bronchial epithelial cell lines were obtained through ATCC: BEAS-2B (ATCC CRL-9609), NuLi-1 (ATCC CRL-4011), IB3-1 (ATCC CRL-2777), CuFi-1 (ATCC CRL-4013). Cells were propagated using the culture conditions outlined in the ATCC recommendations, e.g., I3B-1 cells were maintained on dishes coated with fibronectin (10 μg/m) rat collagen I (30 μg/ml) and BSA 10 μg/mL) in LHC-8 medium (Gibco) containing 5% fetal calf serum (FCS) at 37° C. in a 5% CO2 humified atmosphere. BEAS-2B cells were maintained at 37° C. in a 5% CO2 humified atmosphere on dishes precoated with collagen IV (60 μg/ml in 0.25% acetic acid) in BEGM medium (Lonza); the GA-1000 (gentamycin-amphotericin B mix) provided with the BEGM kit was not added to the medium. The level of endogenous expression of CFTR was too low to obtain a reliable signal. Accordingly, BEAS-2B cells were transiently transfected with a plasmid driving the expression of human GFP-tagged wild type CFTR by using Lipofectamine Plus® (Invitrogen) according to the instructions of the manufacturer. Cells expressing this GFP-tagged CFTR were identified by fluorescence microscopy and subjected to patch clamp recordings as outlined below. The whole cell patch clamp technique was used for current recordings performed at 22±1.5° C. using an Axoclamp 200B patch clamp amplifier (Axon Instruments). Pipettes had resistances between 1 and 2 MO when filled with the recording pipette solution (composition: 110 mM CsCl, 5 mM EGTA, 2 mM MgCl2, 1 mM K2.ATP, 10 mM Hepes, pH adjusted to 7.2 with CsOH). Voltage-clamp protocols and data acquisition were performed with […] 6.0 software (Axon Instruments). Data were low-pass filtered at 2 kHz (-3 dB) and digitized at 10-20 kHz. Cells were continuously superfused with external solution (composition: 145 mM NaCl, 4.5 mM KCl, 2 mM CaCl2, 1 mM MgCl2, 5 mM glucose, 10 mM Hepes, pH adjusted to 7.4 with NaOH). When indicated, the external solution contained Treprostinil (10 μM) or forskolin (5 μM), switching between solutions was achieved by electronically controlled pressure valves.

human erythrocytes = conditions: cited from earlier work
rabbit erythrocytes = conditions: cited from earlier work
CFTR-wt = assay: Whole cell patch clamp of Cl- current in IB3-1 cells transiently expressing GFP-tagged wild type CFTR; format: cell-based, human
Procedure: The whole cell patch clamp technique was used for current recordings performed at 22±1.5° C. using an Axoclamp 200B patch clamp amplifier (Axon Instruments). Pipettes had resistances between 1 and 2 MΩ when filled with the recording pipette solution (composition: 110 mM CsCl, 5 mM EGTA, 2 mM MgCl2, 1 mM K2.ATP, 10 mM Hepes, pH adjusted to 7.2 with CsOH). […] Data were low-pass filtered at 2 kHz (-3 dB) and digitized at 10-20 kHz. Cells were continuously superfused with external solution (composition: 145 mM NaCl, 4.5 mM KCl, 2 mM CaCl2, 1 mM MgCl2, 5 mM glucose, 10 mM Hepes, pH adjusted to 7.4 with NaOH). When indicated, the external solution contained Treprostinil (10 μM) or forskolin (5 μM), switching between solutions was achieved by electronically controlled pressure valves. IB3-1 cells were grown on dishes (Nunc, 3.5 cm diameter) covered with fibronectin (10 μg/mL) rat collagen I (30 μg/mL) and BSA 10 μg/mL) in LHC-8 medium (Gibco) containing 5% fetal calf serum (FCS). Cells were transiently transfected with a plasmid driving the expression of human GFP-tagged wild type CFTR by using Lipofectamine Plus® (Invitrogen) according to the instructions of the manufacturer. […] A transiently transfected IB3-1 cell expressing GFP-tagged wild type CFTR was selected under fluorescent light and clamped to a holding potential at -40 mV. Depolarization was induced by a voltage step to +60 mV for 50 ms and the current amplitude was recorded. Wash-in of Treprostinil (10 μM final concentration, TP) was initiated at the time point 50 s and terminated at 125 s. Forskolin was washed in at 275 s and was removed at 375 s.

With `OCCN(CCO)c1nc(N2CCCCC2)c2nc(N(CCO)CCO)nc(N3CCCCC3)c2n1` [dipyridamole] the “efficacy in treprostinil-triggered cAMP accumulation” value (IB3-1 cells [1]; 10 μM treprostinil) was “higher efficacy”, the “enhancement of the cAMP accumulation triggered by forskolin” value (from here on “enhancement”) (IB3-1 cells [2]) was “substantially enhanced” and the “relative potency as inhibitor, forskolin-triggered cAMP accumulation” value (IB3-1 cells [2]) was “less potent inhibitor”.

In the case of `O=C1CCc2cc(OCCCCc3nnnn3C3CCCCC3)ccc2N1` [Cilostazol], the “accumulation of cAMP with PDE3 inhibitors” value (IB3-1 cells [1]) is reported as “did not induce any accumulation of cAMP”.

In the case of `CC#CCC(C)[C@H](O)/C=C/[C@@H]1[C@H]2C/C(=C/CCCC(=O)O)C[C@H]2C[C@H]1O` (stereo partly drawn) [Iloprost, 5-{(E)-(1S,5S,6R,7R)-7-hydroxy-6-[(E)-(3S,4RS)-3-hydroxy-4-methyl-1-octen-6-inyl]-bi-cyclo[3.3.0]octan-3-ylidene}pentanoic acid], the pulmonary artery pressure [3] is given as “effective in lowering pulmonary artery pressure”.

With `O=C1CN2Cc3c(ccc(Cl)c3Cl)N=C2N1` [Anagrelide] the “accumulation of cAMP with PDE3 inhibitors” value (IB3-1 cells [1]) was “did not induce any accumulation of cAMP”.

In the case of `CCCCOc1cc(CC2CNC(=O)N2)ccc1OC` (centres unmarked) [RO20-1724], the “effect on treprostinil-induced CFTR current of adding PDE4 inhibitor” value [4] is reported as “additional increase of the current”, the “enhancement” value (IB3-1 cells [2]) is reported as “substantially enhanced” and the “relative efficacy, forskolin-triggered cAMP accumulation” value (IB3-1 cells [2]; compared with roflumilast) is reported as “more effective than roflumilast”.

For `CCCCC[C@H](O)CC[C@@H]1[C@H]2Cc3cccc(OCC(=O)[O-])c3C[C@H]2C[C@H]1O.[Na+]` [Treprostinil, (1R,2R,3aS,9aS)-[[2,3,3a,4,9,9a-hexahydro-2-hydroxy-1-[(3S)-3-hydroxyoctyl]-1H-benz[f]inden-5-yl]oxy]acetic acid monosodium salt], the “receptor-mediated cAMP synthesis and ATP release” value (human erythrocytes) is listed as “stimulate”, the “activation of CFTR (outward current)” value ([4]; voltage jumps from −20 to −80 mV) is listed as “sustained activation of CFTR” and the “receptor-mediated cAMP synthesis and ATP release” value (rabbit erythrocytes) is listed as “stimulate”. The “activation of the current (CFTR)” value (CFTR-wt; 10 μM Treprostinil, depolarization from −40 mV holding potential to +60 mV, monosodium salt) was “robust activation; also recorded: can activate CFTR” and the “time for current to decay to basal after washout” value (CFTR-wt; 10 μM treprostinil) was about 100 s.

For `O=C(Nc1c(Cl)cncc1Cl)c1ccc(OC(F)F)c(OCC2CC2)c1` [Roflumilast, 3-(cyclopropylmethoxy)-N-(3,5-dichloropyridin-4-yl)-4-(difluoromethoxy)benzamide], the “effect on treprostinil-induced CFTR current of adding PDE4 inhibitor” value [4] was “additional increase of the current”, the “enhancement” value (IB3-1 cells [2]) was “substantially enhanced” and the “relative potency as inhibitor, forskolin-triggered cAMP accumulation” value (IB3-1 cells [2]) was “most potent inhibitor”.
